The values that follow come from US8207172B2 (Bayer Intellectual Property GmbH, priority 2004, dated 2012).

pIC50: −log10 of the molar value.

In test [1] the test system is A431 cells (human epidermoid carcinoma). Nature of the test: In vitro tumor cell proliferation assay (Cell Titer-Glo luminescent cell viability), A431. It counts as cell-based. The settings on record: A-431, 72 h, 72 hours of drug exposure, ATP luminescence readout, read-out: IC50, anti-proliferative activity (inhibition of cell proliferation). The text has this: (§1) In vitro Tumor Cell Proliferation Assay
(§2) The tumor cell proliferation assay used to test the compounds of the present invention involves a readout called Cell Titer-Glow® Luminescent Cell Viability Assay developed by Promega® (Cunningham, B A “A Growing Issue: Cell Proliferation Assays, Modern kits ease quantification of cell growth” The Scientist 2001, 15(13), 26, and Crouch, S P et al., “The use of ATP bioluminescence as a measure of cell proliferation and cytotoxicity” Journal of Immunological Methods 1993, 160, 81-88), that measures inhibition of cell proliferation. Generation of a luminescent signal corresponds to the amount of ATP present, which is directly proportional to the number of metabolically active (proliferating) cells.
(§3) A431cells (human epidermoid carcinoma, ATCC […]) and BT474 (human breast carcinoma, ATCC […]) were plated at a density of 2.5×10^3 cells/well in 96 well black-clear bottom tissue culture plates in RPMI media with 10% Fetal Bovine Serum and incubated at 37° C. Twenty-four hours later, test compounds are added at a final concentration range from as high […] to as low 64 pM depend on the activities of the tested compounds in serial dilutions at a final DMSO concentration of 0.1%. Cells were incubated for 72 hours at 37° C. in complete growth media after addition of the test compound. After 72 hours of drug exposure, the plates were equilibrated to room temperature for approximately 30 min. Then, using a Promega Cell Titer Glo Luminescent® assay kit, lysis buffer containing 100 microliters of the enzyme luciferase and its substrate, luciferin mixture, was added to each well. The plates were mixed for 2 min on orbital shaker to ensure cell lysis and incubated for 10 min at room temperature to stabilize luminescence signal. The samples were read on VICTOR 2 using Luminescence protocol, and analyzed with Analyze5 software to generate IC50 values.
A general note: Cellular ATP, detected with luciferase, serves as a proxy for viable cell number.

Test [2] has as its system BT474 (human breast carcinoma). Nature of the test: In vitro tumor cell proliferation assay (Cell Titer-Glo luminescent cell viability), BT474. The settings on record: BT-474, 72 h, BT474 cells, 72 hours of drug exposure, ATP luminescence readout, read-out: IC50, anti-proliferative activity (inhibition of cell proliferation). It counts as cell-based.
Description: as §1, §2, §3

As for `CN(C)C1CCN(C(=O)Cn2ncc3c2CCc2c-3sc3ncnc(Nc4ccc(OCc5cccc(F)c5)c(Cl)c4)c23)C1` (stereo in doubt) [Example 208, N-{3-chloro-4-[(3-fluorobenzyl)oxy]phenyl}-3-{2-[(3S)-3-(dimethylamino)pyrrolidin 1-yl]-2-oxoethyl}-4,5-dihydro-3H-pyrimido[5′,4′:4,5]thieno[2,3-e]indazol-6-amine], the pIC50 is ≥ 5.30 in test [1] and ≥ 6.00 in test [2]. For `CN(C)C1CCN(C(=O)Cn2ncc3c2CCc2c-3sc3ncnc(Nc4ccc(OCc5cccc(F)c5)c(Cl)c4)c23)C1` (stereo in doubt) [Example 211, N-{3-chloro-4-[(3-fluorobenzyl)oxy]phenyl}-3-{2-[(3R)-3-(dimethylamino)pyrrolidin-1-yl]-2-oxoethyl}-4,5-dihydro-3H-pyrimido[5′,4′:4,5]thieno[2,3-e]indazol-6-amine] the same measures were ≥ 5.30 and ≥ 6.00. The like results for `OCCn1cc2c(n1)CCc1c-2sc2ncnc(Nc3ccc(F)c(Cl)c3)c12` [Example 1, 2-{6-[(3-chloro-4-fluorophenyl)amino]-4,5-dihydro-2H-pyrimido[5′,4′:4,5]thieno[2,3-e]indazol-2-yl}ethanol] were, in that order, ≥ 5.30 and ≥ 6.00.

`CN(C)[C@H]1CCN(CCn2cc3c(n2)CCc2c-3sc3ncnc(Nc4ccc(F)c(Cl)c4)c23)C1` [Example 2, N-(3-chloro-4-fluorophenyl)-2-{2-[(3S)-3-(dimethylamino)pyrrolidin 1-yl]ethyl}-4,5-dihydro-2H-pyrimido[5′,4′:4,5]thieno[2,3-e]indazol-6-amine]: the pIC50 was ≥ 5.30 in test [1] and ≥ 6.00 in test [2]. For `CN(C)[C@@H]1CCN(CCn2cc3c(n2)CCc2c-3sc3ncnc(Nc4ccc(F)c(Cl)c4)c23)C1` [Example 3, N-(3-chloro-4-fluorophenyl)-2-{2-[(3R)-3-(dimethylamino)pyrrolidin-1-yl]ethyl}-4,5-dihydro-2H-pyrimido[5′,4′:4,5]thieno[2,3-e]indazol-6-amine] the same measures were ≥ 5.30 and ≥ 5.30.

With `COCCNCCn1cc2c(n1)CCc1c-2sc2ncnc(Nc3ccc(F)c(Cl)c3)c12` [Example 4, N-(3-chloro-4-fluorophenyl)-2-{2-[(2-methoxyethyl)amino]ethyl}-4,5-dihydro-2H-pyrimido[5′,4′:4,5]thieno[2,3-e]indazol-6-amine], the pIC50 in test [1] and in test [2] was ≥ 5.30 throughout. With `Fc1ccc(Nc2ncnc3sc4c(c23)CCc2nn(CCN3CCOCC3)cc2-4)cc1Cl` [Example 5, N-(3-chloro-4-fluorophenyl)-2-(2-morpholin-4-ylethyl)-4,5-dihydro-2H-pyrimido[5′,4′:4,5]thieno[2,3-e]indazol-6-amine], the pIC50 in test [1] and in test [2] was ≥ 5.30 each time.

On to `Fc1ccc(Nc2ncnc3sc4c(c23)CCc2nn(CCNCCN3CCOCC3)cc2-4)cc1Cl` [Example 7, N-(3-chloro-4-fluorophenyl)-2-{2-[(2-morpholin-4-ylethyl)amino]ethyl]-4,5-dihydro-2H-pyrimido[5′,4′:4,5]thieno[2,3-e]indazol-6-amine], for which the pIC50 in test [1] was ≥ 5.30; in test [2] it was ≥ 6.00. Regarding `CN1CCN(CCn2cc3c(n2)CCc2c-3sc3ncnc(Nc4ccc(F)c(Cl)c4)c23)CC1` [Example 8, N-(3-chloro-4-fluorophenyl)-2-[2-(4-methylpiperazin-1-yl)ethyl]-4,5-dihydro-2H-pyrimido[5′,4′:4,5]thieno[2,3-e]indazol-6-amine], the results for the pIC50 in test [1] and in test [2] were ≥ 5.30 and ≥ 6.00, respectively. For `Fc1ccc(Nc2ncnc3sc4c(c23)CCc2nn(CCN3CCCC3)cc2-4)cc1Cl` [Example 9, N-(3-chloro-4-fluorophenyl)-2-(2-pyrrolidin-1-ylethyl)-4,5-dihydro-2H-pyrimido[5′,4′:4,5]thieno[2,3-e]indazol-6-amine] the same measures were ≥ 5.30 and ≥ 5.30. For `COCCN(C)CCn1cc2c(n1)CCc1c-2sc2ncnc(Nc3ccc(F)c(Cl)c3)c12` [Example 10, N-(3-chloro-4-fluorophenyl)-2-{2-[(2-methoxyethyl)(methyl)amino]ethyl}-4,5-dihydro-2H-pyrimido[5′,4′:4,5]thieno[2,3-e]indazol-6-amine], the pIC50 in test [1] and in test [2] was ≥ 5.30 throughout. For the compound `Fc1ccc(Nc2ncnc3sc4c(c23)CCc2nn(CCN3CCCCC3)cc2-4)cc1Cl` [Example 11, N-(3-chloro-4-fluorophenyl)-2-(2-piperidin-1-ylethyl)-4,5-dihydro-2H-pyrimido[5′,4′:4,5]thieno[2,3-e]indazol-6-amine], the pIC50 in test [1] and in test [2] was ≥ 5.30 each time. As for `Fc1ccc(Nc2ncnc3sc4c(c23)CCc2nn(CCn3ccnc3)cc2-4)cc1Cl` [Example 12, N-(3-chloro-4-fluorophenyl)-2-[2-(1H-imidazol-1-yl)ethyl]-4,5-dihydro-2H-pyrimido[5′,4′:4,5]thieno[2,3-e]indazol-6-amine], the pIC50 in test [1] and in test [2] was ≥ 5.30 throughout. As to `CS(=O)(=O)CCNCCn1cc2c(n1)CCc1c-2sc2ncnc(Nc3ccc(F)c(Cl)c3)c12` [Example 13, N-(3-chloro-4-fluorophenyl)-2-(2-{[2-(methylsulfonyl)ethyl]amino}ethyl)-4,5-dihydro-2H-pyrimido[5′,4′:4,5]thieno[2,3-e]indazol-6-amine], the pIC50 in test [1] and in test [2] was ≥ 5.30 each time. On to `Fc1ccc(Nc2ncnc3sc4c(c23)CCc2nn(CCN3CCN(Cc5ccncc5)CC3)cc2-4)cc1Cl` [Example 14, N-(3-chloro-4-fluorophenyl)-2-{2-[4-(pyridin-4-ylmethyl)piperazin-1-yl]ethyl}-4,5-dihydro-2H-pyrimido[5′,4′:4,5]thieno[2,3-e]indazol-6-amine], for which the pIC50 in test [1] and in test [2] was ≥ 5.30 throughout. Consider `CN(C)C1CCN(CCn2cc3c(n2)CCc2c-3sc3ncnc(Nc4ccc(F)c(Cl)c4)c23)C1` (stereo not drawn) [Example 15, N-(3-chloro-4-fluorophenyl)-2-{2-[3-(dimethylamino)pyrrolidin-1-yl]ethyl}-4,5-dihydro-2H-pyrimido[5′,4′:4,5]thieno[2,3-e]indazol-6-amine], for which the pIC50 in test [1] is ≥ 5.30; in test [2], ≥ 6.00.

For the compound `CN(C)CCNCCn1cc2c(n1)CCc1c-2sc2ncnc(Nc3ccc(F)c(Cl)c3)c12` [Example 16, N′-(2-{6-[(3-chloro-4-fluorophenyl)amino]-4,5-dihydro-2H-pyrimido[5′,4′:4,5]thieno[2,3-e]indazol-2-yl}ethyl)-N,N-dimethylethane-1,2-diamine], the pIC50 in test [1] and in test [2] was ≥ 5.30 in each case. As to `CN(C)CCCCNCCn1cc2c(n1)CCc1c-2sc2ncnc(Nc3ccc(F)c(Cl)c3)c12` [Example 17, N′-(2-{6-[(3-chloro-4-fluorophenyl)amino]-4,5-dihydro-2H-pyrimido[5′,4′:4,5]thieno[2,3-e]indazol-2-yl}ethyl)-N,N-dimethylbutane-1,4-diamine], the pIC50 in test [1] and in test [2] was ≥ 5.30 in each case. As for `Fc1ccc(Nc2ncnc3sc4c(c23)CCc2nn(CCNCCN3CCCC3)cc2-4)cc1Cl` [Example 18, N-(3-chloro-4-fluorophenyl)-2-{2-[(2-pyrrolidin-1-ylethyl)amino]ethyl}-4,5-dihydro-2H-pyrimido[5′,4′:4,5]thieno[2,3-e]indazol-6-amine], the pIC50 in test [1] and in test [2] was ≥ 4.30 in each case.

As to `Fc1cccc(COc2ccc(Nc3ncnc4sc5c(c34)CCc3nn(CCC4CCNCC4)cc3-5)cc2Cl)c1` [Example 247, N-{3-chloro-4-[(3-fluorobenzyl)oxy]phenyl}-2-(2-piperidin-4-ylethyl)-4,5-dihydro-2H-pyrimido[5′,4′:4,5]thieno[2,3-e]indazol-6-amine], the pIC50 in test [2] was ≥ 6.00. As to `CS(=O)(=O)OCCn1cc2c(n1)CCc1c-2sc2ncnc(Nc3ccc4c(cnn4Cc4ccccc4)c3)c12` [Example 303, 2-{6-[(1-benzyl-1H-indazol-5-yl)amino]-4,5-dihydro-2H-pyrimido[5′,4′:4,5]thieno[2,3-e]indazol-2-yl}ethyl methanesulfonate], the pIC50 in test [2] is ≥ 6.00.

For `c1ccc(Cn2ncc3cc(Nc4ncnc5sc6c(c45)CCc4nn(CCN5CCNCC5)cc4-6)ccc32)cc1` [Example 306, N-(1-benzyl-1H-indazol-5-yl)-2-(2-piperazin-1-ylethyl)-4,5-dihydro-2H-pyrimido[5′,4′:4,5]thieno[2,3-e]indazol-6-amine], the pIC50 in test [2] is ≥ 6.00.

With `CN1CCN(CCn2cc3c(n2)CCc2c-3sc3ncnc(Nc4ccc5c(ccn5Cc5ccccc5)c4)c23)CC1` [Example 337, N-(1-benzyl-1H-indol-5-yl)-2-[2-(4-methylpiperazin-1-yl)ethyl]-4,5-dihydro-2H-pyrimido[5′,4′:4,5]thieno[2,3-e]indazol-6-amine], the pIC50 in test [2] is ≥ 6.00.
